Entries after “also recorded” stand apart in the source; their conditions may differ. No end group written: not given here.
Columns and labels:
[1] = molecular target: HLA-A*11:01 on TAP-deficient T2 cell line (Homo sapiens, UniProt P04439, A114D/D185E/E176A/F33Y/L180Q/S129P/T187R); type: cell-based
HLA-A*02:01 = HLA-A*02:01 (Homo sapiens, UniProt P04439, D140Y/D185E/D98H/E176V/E277Q/G131W/G231S/I119V/I121R/I166T/I218V/L300P/L318F/N151K/N90K/P208A/P217A/Q86G/Q94H/R138H/R169H/T345S); settings: ref [20]; cited from earlier work

Row | Sequence | binding ability on T2 cell line (in words, rank) [1] | binding to HLA-A*02:01 (in words) (HLA-A*02:01)
1 | TTDHLKFSK [TTDHLKFSK] | VITTDHLK ≈ STIHSIQY > KLIMTQVSK > TTDHLKFSK; also recorded: lowest binding affinity | –
2 | KLIMTQVSK [KLIMTQVSK] | VITTDHLK ≈ STIHSIQY > KLIMTQVSK > TTDHLKFSK; also recorded: moderate binding affinity | –
3 | FVGEFFTDV | – | positive binding
4 | STIHDSIQY [STIHDSIQY] | no significant difference in IC50 value; also recorded: excellent binding affinity | –
5 | VINTTDHLK [VINTTDHLK] | VITTDHLK ≈ STIHSIQY > KLIMTQVSK > TTDHLKFSK; also recorded: excellent binding affinity | –
